Laboratory results reported in US20240343762A1, “USE OF PROTON PUMP MODULATOR IN PREPARING REAGENT” (SHANGHAI QUIETD BIOTECHNOLOGY CO. LTD., priority 2021, published 2024).
Ends that are not written are not given here.

Assays:
[1] = tested on: hippocampal CA1 pyramidal neurons; assay: Whole-cell patch-clamp recording of spontaneous excitatory postsynaptic current (sEPSC) in hippocampus brain slice; type: cell-based, mouse; conditions: sEPSC at -70 mV, perfusion for 5 min; 5 μM in Embodiment 3
Procedure: 0.1-0.15 ml of 20% ethyl carbamate was injected into the abdominal cavity of a C57 mouse of 2 to 3 months old for anesthesia; a head was quickly cut, and brain tissues were stripped and put into artificial cerebrospinal fluid (ACSF) ice-water mixed liquid into which mixed gas (95% O2 and 5% CO2) was introduced in advance, and stood for 2 min; the ACSF included the following components: […] of NaCl, […] of KCl, 0.12 mM of NaH2PO4, 0.25 mM of CaCl2), 0.12 mM of MgCl2, 25 mM of NaHCO3 and 11 mM of glucose. A hippocampus coronal brain slice of 350 μm was cut by a vibration slicer. The hippocampus coronal brain slice was placed into the ACSF at room temperature for more than 30 min for recovery, and then the brain slice was put into a record slot; continuous perfusing was performed at a speed of 2 to 2.5 ml/min by the ACSF into which the mixed gas was introduced; blind-binding sealing was performed on hippocampus CA1 pyramidal neuron under an Olympic BX51 upright microscope; whole-cell patch-clamp was performed by an Axon700B amplifier and a 1550B digital-to-analog converter; spontaneous excitatory postsynaptic current (sEPSC) of the pyramidal neuron was recorded by a voltage clamp under the clamp voltage of −70 mV; after recording for 5 min, synthetic polypeptides such as 5 μM QD202 or QD202 N′-1, C′-1 and C′-2 for 5 min; and then perfusing and flushing were performed for 10 min by the ACSF. The recorded data was analyzed by Minianalysis software. […]

[2] = molecular target: T1, ATP6V1B2 protein of mouse brain hippocampus tissue (endogenous) (mouse, UniProt P62814 1-511); assay: immunoprecipitation with biotin antibody from mouse hippocampus lysate, SDS-PAGE, mass spectrometry
T1 construct: Endogenous protein in tissue lysate; also called band of about 55 kDa
T1 sequence (P62814 whole entry): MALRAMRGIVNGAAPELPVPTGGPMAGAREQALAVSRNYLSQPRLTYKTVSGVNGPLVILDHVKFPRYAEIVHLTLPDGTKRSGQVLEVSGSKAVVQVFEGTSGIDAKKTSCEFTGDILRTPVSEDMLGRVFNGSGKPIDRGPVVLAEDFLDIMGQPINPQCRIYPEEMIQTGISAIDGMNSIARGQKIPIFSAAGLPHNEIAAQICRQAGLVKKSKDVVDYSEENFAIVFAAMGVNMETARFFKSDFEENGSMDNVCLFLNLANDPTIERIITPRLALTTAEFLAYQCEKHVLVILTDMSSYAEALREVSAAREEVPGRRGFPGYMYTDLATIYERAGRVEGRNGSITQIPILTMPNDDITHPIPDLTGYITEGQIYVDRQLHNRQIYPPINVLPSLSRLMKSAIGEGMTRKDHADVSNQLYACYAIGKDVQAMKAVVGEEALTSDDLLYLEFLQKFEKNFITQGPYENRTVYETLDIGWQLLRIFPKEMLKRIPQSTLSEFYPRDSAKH

Row | Molecule | spontaneous excitatory synaptic transmitter release of hippocampal CA1 neurons [1] | binding result [2]
1 | QD202 C′-1: polypeptide of SEQ ID NO. 3; QD202 with one amino acid removed at the C end (YGRKKRRQRRRSPVDVVC; QD202 C -1) | effect similar to that of QD202 can still be observed | 
2 | QD202 C′-2: polypeptide of SEQ ID NO. 4; QD202 with two amino acids removed at the C end (YGRKKRRQRRRSPVDVV; QD202 C -2) | effect similar to that of QD202 cannot be observed | 
3 | QD202 N′-1: polypeptide of SEQ ID NO. 2; QD202 with one amino acid removed at the N end (YGRKKRRQRRRPVDVVCS; QD202 N -1) | effect similar to that of QD202 cannot be observed | 
4 | YGRKKRRQRRRVCDSSVVP-biotin [Disordered control QD201 with a biotin label at the C' end] |  | no binding
